From patent publication US20260297087A1, “Pyridoimidazolone Compounds, Preparation Thereof and Therapeutic Uses Thereof” (Sanofi, priority 2023, published 2026)

How the values were obtained:
ERK5 = target: T1, ERK5 (Homo sapiens, UniProt Q13164); assay: Inhibition of Cellular ERK5 Activity (cell-based assay, MEF2 luciferase reporter in SN12C cells); conditions: renal cancer cell line SN12C, doxycycline-induced MEKSDD, mean where repeated
T1 construct: MEF2-luciferase reporter
Procedure, shortened: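 SN12C cells carrying a MEF2-luciferase reporter and doxycycline-inducible (1 μg/ml) constitutively active MEK5DD, seeded 24 h before compound addition at 0.3–1000 nM (0.1% DMSO final). Luminescence read; IC50 is the concentration giving 50% signal reduction versus DMSO-treated cells.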

[1] = target: T2, ERK5 (activated catalytic domain) (Homo sapiens, UniProt Q13164); assay: Cell-Free Assay of ERK5 Inhibition (Time-Resolved FRET, 4EBP1 peptide phosphorylation); type: biochemical; conditions: ERK5 catalytic domain 4 nM, 1 mM ATP, 1 μM biotinylated 4EBP1 peptide, 30 min at 37° C.; mean where repeated; read-out: Cell-free assay (IC50 in nM)
T2 construct: purchased CarnaBiosciences 04-146
T2 sequence (Q13164 55-347 limits assumed): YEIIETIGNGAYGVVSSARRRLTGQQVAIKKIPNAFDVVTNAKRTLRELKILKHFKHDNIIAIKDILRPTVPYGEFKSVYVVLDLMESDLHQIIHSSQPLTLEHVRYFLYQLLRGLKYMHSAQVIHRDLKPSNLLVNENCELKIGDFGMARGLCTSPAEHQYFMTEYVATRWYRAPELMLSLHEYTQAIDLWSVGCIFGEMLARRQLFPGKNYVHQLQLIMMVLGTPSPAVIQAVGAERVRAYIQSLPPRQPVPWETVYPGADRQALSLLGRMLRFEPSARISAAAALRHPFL
Procedure, shortened: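 Activated ERK5 catalytic domain at 4 nM preincubated 30 min at room temperature with compound, then 1 mM ATP and 1 μM biotinylated 4EBP1 (aa 30-52) peptide added for 30 min at 37° C. Phosphorylation detected by TR-FRET; IC50 versus DMSO control, repeats averaged.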

T1 sequence (Q13164 whole entry): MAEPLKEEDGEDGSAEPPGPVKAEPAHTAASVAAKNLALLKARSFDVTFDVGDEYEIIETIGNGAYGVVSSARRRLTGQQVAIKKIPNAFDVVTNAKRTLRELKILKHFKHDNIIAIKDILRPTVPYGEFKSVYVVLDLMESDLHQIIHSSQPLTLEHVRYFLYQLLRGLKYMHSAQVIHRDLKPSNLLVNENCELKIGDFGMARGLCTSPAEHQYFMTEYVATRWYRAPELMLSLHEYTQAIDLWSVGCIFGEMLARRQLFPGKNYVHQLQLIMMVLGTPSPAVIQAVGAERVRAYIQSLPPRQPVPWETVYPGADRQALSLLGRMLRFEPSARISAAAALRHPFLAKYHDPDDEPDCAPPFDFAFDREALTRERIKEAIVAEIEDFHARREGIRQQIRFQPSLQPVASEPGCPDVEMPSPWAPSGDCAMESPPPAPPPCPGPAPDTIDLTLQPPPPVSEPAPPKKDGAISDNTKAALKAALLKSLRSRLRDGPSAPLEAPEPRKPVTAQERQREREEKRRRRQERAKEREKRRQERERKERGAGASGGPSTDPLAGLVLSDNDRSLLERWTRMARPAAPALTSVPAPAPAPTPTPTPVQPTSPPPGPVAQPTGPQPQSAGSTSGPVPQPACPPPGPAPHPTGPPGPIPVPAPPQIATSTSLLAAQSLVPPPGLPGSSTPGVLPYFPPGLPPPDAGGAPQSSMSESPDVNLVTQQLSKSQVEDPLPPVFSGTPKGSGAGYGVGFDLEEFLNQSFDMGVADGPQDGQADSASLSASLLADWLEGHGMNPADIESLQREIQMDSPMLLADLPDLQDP

Compound	IC50 (ERK5)	IC50 [1]
O=C(c1ccc(OC(F)(F)F)cc1)N1CCC(n2c(=O)[nH]c3ncc(C4CCOCC4)cc32)CC1 [Example 41, 6-tetrahydropyran-4-yl-1-[1-[4-(trifluoromethoxy)benzoyl]-4-piperidyl]-3H-imidazo[4,5-b]pyridin-2-one]	152 nM	557 nM
O=C(c1ccc(OC(F)(F)F)cc1)N1CCC(n2c(=O)[nH]c3ncc(CC4COC4)cc32)CC1 [Example 42, 6-(oxetan-3-ylmethyl)-1-[1-[4-(trifluoromethoxy)benzoyl]-4-piperidyl]-3H-imidazo[4,5-b]pyridin-2-one]	136 nM	354 nM
CO[C@H]1CC[C@@H](c2cnc3[nH]c(=O)n(C4CCN(C(=O)c5ccc(OC(F)(F)F)cc5N)CC4)c3c2)CC1 [Example 46, cis-1-[1-[2-amino-4-(trifluoromethoxy)benzoyl]-4-piperidyl]-6-(4-methoxycyclohexyl)-3H-imidazo[4,5-b]pyridin-2-one]	199 nM	643 nM
Nc1cc(OC(F)(F)F)ccc1C(=O)N1CCC(n2c(=O)[nH]c3ncc([C@H]4CC[C@H](O)CC4)cc32)CC1 [Example 51, trans-1-[1-[2-amino-4-(trifluoromethoxy)benzoyl]-4-piperidyl]-6-(4-hydroxycyclohexyl)-3H-imidazo[4,5-b]pyridin-2-one]	205 nM	52 nM
Nc1cc(OC(F)(F)F)ccc1C(=O)N1CCC(n2c(=O)[nH]c3ncc(C4CCN(CC(F)(F)F)CC4)cc32)CC1 [Example 53, 1-[1-[2-amino-4-(trifluoromethoxy)benzoyl]-4-piperidyl]-6-[1-(2,2,2-trifluoroethyl)-4-piperidyl]-3H-imidazo[4,5-b]pyridin-2-one]	184 nM	405 nM
CN1CCC(c2cnc3[nH]c(=O)n(C4CCN(C(=O)c5ccc(OC(F)(F)F)cc5N)CC4)c3c2)CC1 [Example 54, 1-[1-[2-amino-4-(trifluoromethoxy)benzoyl]-4-piperidyl]-6-(1-methyl-4-piperidyl)-3H-imidazo[4,5-b]pyridin-2-one]	168 nM	78 nM
O=C(c1ccc(OC(F)(F)F)cc1)N1CCC(n2c(=O)[nH]c3ncc([C@H]4CC[C@H](O)CC4)cc32)CC1 [Example 57, trans-6-(4-hydroxycyclohexyl)-1-[1-[4-(trifluoromethoxy)benzoyl]-4-piperidyl]-3H-imidazo[4,5-b]pyridine-2-one]	204 nM	180 nM

More lines, in order of falling IC50 (ERK5), values ahead:

IC50 (ERK5)	IC50 [1]	Compound
2150 nM	30000 nM	CC(C)(C)OC(=O)Nc1cc(OC(F)(F)F)ccc1C(=O)N1CCC(n2c(=O)[nH]c3ncc(Br)cc32)CC1 [Example 59, tert-butyl N-[2-[4-(6-bromo-2-oxo-3H-imidazo[4,5-b]pyridin-1-yl)piperidine-1-carbonyl]-5-(trifluoromethoxy)phenyl]carbamate]
641 nM	1080 nM	O=C(c1ccc(OC(F)(F)F)cc1)N1CCC(n2c(=O)[nH]c3ncc(Br)cc32)CC1 [Example 60, 6-bromo-1-[1-[4-(trifluoromethoxy)benzoyl]-4-piperidyl]-3H-imidazo[4,5-b]pyridin-2-one]
244 nM	97 nM	Nc1cc(OC(F)(F)F)ccc1C(=O)N1CCC(n2c(=O)[nH]c3ncc([C@H]4CC[C@@H](O)CC4)cc32)CC1 [Example 52, cis-1-[1-[2-amino-4-(trifluoromethoxy)benzoyl]-4-piperidyl]-6-(4-hydroxycyclohexyl)-3H-imidazo[4,5-b]pyridin-2-one]
222 nM	288 nM	O=C(c1ccc(OC(F)(F)F)cc1)N1CCC(n2c(=O)[nH]c3ncc([C@H]4CC[C@@H](O)CC4)cc32)CC1 [Example 58, cis-6-(4-hydroxycyclohexyl)-1-[1-[4-(trifluoromethoxy)benzoyl]-4-piperidyl]-3H-imidazo[4,5-b]pyridin-2-one]
75 nM	117 nM	Nc1cc(OC(F)(F)F)ccc1C(=O)N1CCC(n2c(=O)[nH]c3ncc(CC4CCOCC4)cc32)CC1 [Example 39, 1-[1-[2-amino-4-(trifluoromethoxy)benzoyl]-4-piperidyl]-6-(tetrahydropyran-4-ylmethyl)-3H-imidazo[4,5-b]pyridin-2-one]
29 nM	107 nM	CO[C@H]1CC[C@H](c2cnc3[nH]c(=O)n(C4CCN(C(=O)c5ccc(OC(F)(F)F)cc5N)CC4)c3c2)CC1 [Example 45, trans-1-[1-[2-amino-4-(trifluoromethoxy)benzoyl]-4-piperidyl]-6-(4-methoxycyclohexyl)-3H-imidazo[4,5-b]pyridin-2-one]
